# Laboratory results reported in the CombiSolv-Exp solvation set (Vermeire and Green 2021).
# Assay: solvent given as SMILES
smiles,measurement,setting,value
C1CCCCC1,"solvation free energy, 298 K",in BrC(Br)C(Br)Br,-3.42 kcal/mol
same,"solvation free energy, 298 K",in Brc1cccc2ccccc12,-3.66 kcal/mol
same,"solvation free energy, 298 K",in Brc1ccccc1,-4.07 kcal/mol
same,"solvation free energy, 298 K",in C1=Cc2ccccc2C1,-3.92 kcal/mol
same,"solvation free energy, 298 K",in C1CCC(C2CCCCC2)CC1,-4.09 kcal/mol
same,"solvation free energy, 298 K",in C1CCNC1,-4.04 kcal/mol
same,"solvation free energy, 298 K",in C1CCNCC1,-4.32 kcal/mol
same,"solvation free energy, 298 K",in C1CCOC1,-4.23 kcal/mol
same,"solvation free energy, 298 K",in C1COCCO1,-3.66 kcal/mol
same,"solvation free energy, 298 K",in C=CCCCC,-4.22 kcal/mol
same,"solvation free energy, 298 K",in C=CCCCCCC,-4.18 kcal/mol
same,"solvation free energy, 298 K",in C=CCCCCCCCC,-4.12 kcal/mol
same,"solvation free energy, 298 K",in C=CCCCCCCCCCCCCCC,-3.89 kcal/mol
same,"solvation free energy, 298 K",in CC1CCS(=O)(=O)C1,-2.73 kcal/mol
same,"solvation free energy, 298 K",in CC1COC(=O)O1,-2.65 kcal/mol
same,"solvation free energy, 298 K",in CC#N,-3.03 kcal/mol
same,"solvation free energy, 298 K",in CC(=O)CC(C)C,-3.92 kcal/mol
same,"solvation free energy, 298 K",in CC(=O)O,-3.23 kcal/mol
same,"solvation free energy, 298 K",in CC(=O)OCc1ccccc1,-3.53 kcal/mol
same,"solvation free energy, 298 K",in CC(=O)c1ccccc1,-3.52 kcal/mol
same,"solvation free energy, 298 K",in CC(C)(C)O,-3.67 kcal/mol
same,"solvation free energy, 298 K",in CC(C)=O,-3.58 kcal/mol
same,"solvation free energy, 298 K",in CC(C)CC(C)(C)C,-4.15 kcal/mol
same,"solvation free energy, 298 K",in CC(C)CCCC(C)CCCC(C)CCCCC(C)CCCC(C)CCCC(C)C,-3.87 kcal/mol
same,"solvation free energy, 298 K",in CC(C)CCO,-3.77 kcal/mol
same,"solvation free energy, 298 K",in CC(C)CO,-3.93 kcal/mol
same,"solvation free energy, 298 K",in CC(C)O,-3.52 kcal/mol
same,"solvation free energy, 298 K",in CC(C)OC(C)C,-4.18 kcal/mol
same,"solvation free energy, 298 K",in CCBr,-4.31 kcal/mol
same,"solvation free energy, 298 K",in CCC#N,-3.57 kcal/mol
same,"solvation free energy, 298 K",in CCC(C)(C)OC,-4.3 kcal/mol
same,"solvation free energy, 298 K",in CCC(C)=O,-3.79 kcal/mol
same,"solvation free energy, 298 K",in CCC(C)O,-3.64 kcal/mol
same,"solvation free energy, 298 K",in CCCC#N,-3.45 kcal/mol
same,"solvation free energy, 298 K",in CCCC(=O)OCC,-3.93 kcal/mol
same,"solvation free energy, 298 K",in CCCC(C)=O,-3.82 kcal/mol
same,"solvation free energy, 298 K",in CCCCC,-4.25 kcal/mol
same,"solvation free energy, 298 K",in CCCCC#N,-3.58 kcal/mol
same,"solvation free energy, 298 K",in CCCCC(CC)COC(=O)CCCCC(=O)OCC(CC)CCCC,-3.77 kcal/mol
same,"solvation free energy, 298 K",in CCCCC(CC)COC(=O)c1ccccc1C(=O)OCC(CC)CCCC,-3.6 kcal/mol
same,"solvation free energy, 298 K",in CCCCCC,-4.24 kcal/mol
same,"solvation free energy, 298 K",in CCCCCC#N,-3.66 kcal/mol
same,"solvation free energy, 298 K",in CCCCCC(C)=O,-3.86 kcal/mol
same,"solvation free energy, 298 K",in CCCCCCC,-4.2 kcal/mol
same,"solvation free energy, 298 K",in CCCCCCCC,-4.18 kcal/mol
same,"solvation free energy, 298 K",in CCCCCCCCC,-4.13 kcal/mol
same,"solvation free energy, 298 K",in CCCCCCCCC=CCCCCCCCC(=O)OCC(COC(=O)CCCCCCCC=CCCCCCCCC)OC(=O)CCCCCCCC=CCCCCCCCC,-3.86 kcal/mol
same,"solvation free energy, 298 K",in CCCCCCCCCC,-4.11 kcal/mol
same,"solvation free energy, 298 K",in CCCCCCCCCCCC,-4.03 kcal/mol
same,"solvation free energy, 298 K",in CCCCCCCCCCCCCC,-3.91 kcal/mol
same,"solvation free energy, 298 K",in CCCCCCCCCCCCCCCC,-3.97 kcal/mol
same,"solvation free energy, 298 K",in CCCCCCCCCCCCO,-3.7 kcal/mol
same,"solvation free energy, 298 K",in CCCCCCCCCCO,-3.42 kcal/mol
same,"solvation free energy, 298 K",in CCCCCCCCN(CCCCCCCC)CCCCCCCC,-3.86 kcal/mol
same,"solvation free energy, 298 K",in CCCCCCCCO,-3.73 kcal/mol
same,"solvation free energy, 298 K",in CCCCCCCO,-3.72 kcal/mol
same,"solvation free energy, 298 K",in CCCCCCO,-3.75 kcal/mol
same,"solvation free energy, 298 K",in CCCCCCOC(C)=O,-3.93 kcal/mol
same,"solvation free energy, 298 K",in CCCCCN(CCCCC)CCCCC,-4.01 kcal/mol
same,"solvation free energy, 298 K",in CCCCCO,-3.71 kcal/mol
same,"solvation free energy, 298 K",in CCCCCl,-4.17 kcal/mol
same,"solvation free energy, 298 K",in CCCCN(C=O)CCCC,-3.67 kcal/mol
same,"solvation free energy, 298 K",in CCCCN(CCCC)CCCC,-3.92 kcal/mol
same,"solvation free energy, 298 K",in CCCCO,-3.7 kcal/mol
same,"solvation free energy, 298 K",in CCCCOC,-4.2 kcal/mol
same,"solvation free energy, 298 K",in CCCCOC(=O)c1ccccc1C(=O)OCCCC,-3.73 kcal/mol
same,"solvation free energy, 298 K",in CCCCOC(C)=O,-3.91 kcal/mol
same,"solvation free energy, 298 K",in CCCCOCC,-4.07 kcal/mol
same,"solvation free energy, 298 K",in CCCCOCCCC,-4.13 kcal/mol
same,"solvation free energy, 298 K",in CCCO,-3.59 kcal/mol
same,"solvation free energy, 298 K",in CCCOCCC,-4.12 kcal/mol
same,"solvation free energy, 298 K",in CCN1CCCC1=O,-3.39 kcal/mol
same,"solvation free energy, 298 K",in CCN(CC)C(C)=O,-3.55 kcal/mol
same,"solvation free energy, 298 K",in CCN(CC)CC,-4.23 kcal/mol
same,"solvation free energy, 298 K",in CCNC(C)=O,-3.41 kcal/mol
same,"solvation free energy, 298 K",in CCNC=O,-3.22 kcal/mol
same,"solvation free energy, 298 K",in CCO,-3.5 kcal/mol
same,"solvation free energy, 298 K",in CCOC(=O)c1ccccc1C(=O)OCC,-3.24 kcal/mol
same,"solvation free energy, 298 K",in CCOC(C)(C)C,-4.17 kcal/mol
same,"solvation free energy, 298 K",in CCOC(C)=O,-3.78 kcal/mol
same,"solvation free energy, 298 K",in CCOCC,-4.19 kcal/mol
same,"solvation free energy, 298 K",in CCOCCO,-3.41 kcal/mol
same,"solvation free energy, 298 K",in CCOCCOCCOCC,-3.81 kcal/mol
same,"solvation free energy, 298 K",in CCOc1ccccc1,-3.89 kcal/mol
same,"solvation free energy, 298 K",in CN1CCCC1=O,-3.18 kcal/mol
same,"solvation free energy, 298 K",in CN1CCCCC1=O,-3.37 kcal/mol
same,"solvation free energy, 298 K",in CN1CCN(C)C1=O,-3.07 kcal/mol
same,"solvation free energy, 298 K",in CN(C)P(=O)(N(C)C)N(C)C,-3.47 kcal/mol
same,"solvation free energy, 298 K",in CNC(C)=O,-3.26 kcal/mol
same,"solvation free energy, 298 K",in CNC=O,-2.93 kcal/mol
same,"solvation free energy, 298 K",in CO,-3.25 kcal/mol
same,"solvation free energy, 298 K",in COC(C)(C)C,-4.16 kcal/mol
same,"solvation free energy, 298 K",in COC(C)=O,-3.61 kcal/mol
same,"solvation free energy, 298 K",in COCCO,-3.15 kcal/mol
same,"solvation free energy, 298 K",in COc1ccccc1,-3.84 kcal/mol
same,"solvation free energy, 298 K",in CS(C)=O,-2.5 kcal/mol
same,"solvation free energy, 298 K",in Cc1ccc(C)cc1,-4.17 kcal/mol
same,"solvation free energy, 298 K",in Cc1cccc2ccccc12,-3.8 kcal/mol
same,"solvation free energy, 298 K",in Cc1cccc(O)c1,-3.42 kcal/mol
same,"solvation free energy, 298 K",in Cc1ccccc1,-4.2 kcal/mol
same,"solvation free energy, 298 K",in Cc1ccccn1,-3.91 kcal/mol
same,"solvation free energy, 298 K",in ClC(Cl)(Cl)Cl,-4.44 kcal/mol
same,"solvation free energy, 298 K",in ClC(Cl)C(Cl)Cl,-3.76 kcal/mol
same,"solvation free energy, 298 K",in ClC(Cl)Cl,-4.33 kcal/mol
same,"solvation free energy, 298 K",in ClCCCl,-3.93 kcal/mol
same,"solvation free energy, 298 K",in ClCCl,-4.1 kcal/mol
same,"solvation free energy, 298 K",in Clc1cccc2ccccc12,-3.88 kcal/mol
same,"solvation free energy, 298 K",in Clc1ccccc1,-4.22 kcal/mol
same,"solvation free energy, 298 K",in FC(F)(F)C(F)(F)C(F)(F)C(F)(F)C(F)(F)C(F)(F)C(F)(F)C(F)(F)F,-2.65 kcal/mol
same,"solvation free energy, 298 K",in FC(F)(F)C(F)(F)C(F)(F)C(F)(F)C(F)(F)C(F)(F)F,-2.71 kcal/mol
same,"solvation free energy, 298 K",in Fc1ccccc1,-4.12 kcal/mol
same,"solvation free energy, 298 K",in ICI,-3.06 kcal/mol
same,"solvation free energy, 298 K",in N#CCCCC#N,-2.17 kcal/mol
same,"solvation free energy, 298 K",in N#CCCCCC#N,-2.51 kcal/mol
same,"solvation free energy, 298 K",in N#CCCOCCC#N,-2.24 kcal/mol
same,"solvation free energy, 298 K",in N#CCc1ccccc1,-3.16 kcal/mol
same,"solvation free energy, 298 K",in N#Cc1ccccc1,-3.54 kcal/mol
same,"solvation free energy, 298 K",in NC=O,-1.36 kcal/mol
same,"solvation free energy, 298 K",in NCCO,-1.69 kcal/mol
same,"solvation free energy, 298 K",in NCc1ccccc1,-3.46 kcal/mol
same,"solvation free energy, 298 K",in Nc1ccccc1,-3.07 kcal/mol
same,"solvation free energy, 298 K",in O,1.22 kcal/mol
same,"solvation free energy, 298 K",in O=C1CCCCC1,-3.85 kcal/mol
same,"solvation free energy, 298 K",in O=C1CCCO1,-2.81 kcal/mol
same,"solvation free energy, 298 K",in O=C(O)C(Cl)Cl,-3.29 kcal/mol
same,"solvation free energy, 298 K",in O=CN1CCOCC1,-2.65 kcal/mol
same,"solvation free energy, 298 K",in O=Cc1ccco1,-3.01 kcal/mol
same,"solvation free energy, 298 K",in OC1CCCCC1,-3.69 kcal/mol
same,"solvation free energy, 298 K",in OCCCCCO,-2.61 kcal/mol
same,"solvation free energy, 298 K",in OCCCCO,-2.53 kcal/mol
same,"solvation free energy, 298 K",in OCCCO,-2.19 kcal/mol
same,"solvation free energy, 298 K",in OCCO,-1.5 kcal/mol
same,"solvation free energy, 298 K",in OCCOCCO,-2.16 kcal/mol
same,"solvation free energy, 298 K",in OCCOCCOCCO,-2.26 kcal/mol
same,"solvation free energy, 298 K",in OCCOCCOCCOCCO,-2.34 kcal/mol
same,"solvation free energy, 298 K",in OCCS,-2.58 kcal/mol
same,"solvation free energy, 298 K",in OCCc1ccccc1,-3.32 kcal/mol
same,"solvation free energy, 298 K",in OCc1ccccc1,-3.23 kcal/mol
same,"solvation free energy, 298 K",in OCc1ccco1,-2.94 kcal/mol
same,"solvation free energy, 298 K",in S=C=S,-4.49 kcal/mol
same,"solvation free energy, 298 K",in c1ccc2c(c1)CCCC2,-4.1 kcal/mol
same,"solvation free energy, 298 K",in c1ccc2ncccc2c1,-3.61 kcal/mol
same,"solvation free energy, 298 K",in c1ccc(C2CCCCC2)cc1,-4.03 kcal/mol
same,"solvation free energy, 298 K",in c1ccccc1,-4.23 kcal/mol
same,"solvation free energy, 298 K",in c1ccncc1,-3.75 kcal/mol
